The text below walks through data of paper PMC5627009, “Cyclotides Isolated from an Ipecac Root Extract Antagonize the Corticotropin Releasing Factor Type 1 Receptor” (Frontiers in Pharmacology, 2017).

In test [1] the test system is human V2R. Briefly: cAMP accumulation assay at vasopressin V2 receptor (LANCE Ultra cAMP). The format is cell-based. To be noted: HEK293 transiently expressing human V2R, caripe 8 26 nM & 260 nM, 30 min, 23°C, five or more experiments in triplicate, not statistically different (One-way ANOVA). The method, then:
Receptor-mediated cAMP accumulation was measured in HEK293 cells transiently transfected with the human CRF1R (with C-terminal GFP tag) using the LANCE® Ultra cAMP Detection kit (PerkinElmer, Waltham, MA, United States). To prepare for experiments, HEK293 cells were grown to confluence in a 6-well plate, followed by transfection with 2.5 μg of plasmid DNA per well using the Lipofectamine® 2000 transfection reagent (Thermo Fisher Scientific). After 4–6 h post-transfection, the cell media was replaced, followed by dissociation of cells via trituration and division of the cell suspension to avoid overcrowding over the subsequent 48 h of incubation at 37°C and 5% CO2. On the day of assay, cells were dissociated with phosphate buffered saline- (PBS-)EDTA solution (137 mM NaCl, 2.7 mM KCl, 10 mM Na2HPO4, 1.8 mM KH2PO4, 1 mM EDTA) and re-suspended in stimulation buffer (1.26 mM CaCl2, 0.49 mM MgCl2, 0.41 mM MgSO4, 5.33 mM KCl, 0.44 mM KH2PO4, 4.17 mM NaHCO3, 138 mM NaCl, 0.34 mM Na2HPO4, 5.56 mM D-glucose, 5 mM HEPES, 0.5 mM IBMX, 0.1% BSA; pH 7.4). […] After incubation, the plate was read in a Flexstation 3 plate reader (Molecular Devices, Sunnyvale, CA, United States).
Data from cellular assays were analyzed using GraphPad Prism 7.01 (GraphPad Software, San Diego, CA, United States). […]

In test [2] the target is T1, human CRF1R (Homo sapiens, UniProt P34998).
T1 construct: expressed in transfected cells; host or cells: HEK293
T1 sequence (P34998 24-415): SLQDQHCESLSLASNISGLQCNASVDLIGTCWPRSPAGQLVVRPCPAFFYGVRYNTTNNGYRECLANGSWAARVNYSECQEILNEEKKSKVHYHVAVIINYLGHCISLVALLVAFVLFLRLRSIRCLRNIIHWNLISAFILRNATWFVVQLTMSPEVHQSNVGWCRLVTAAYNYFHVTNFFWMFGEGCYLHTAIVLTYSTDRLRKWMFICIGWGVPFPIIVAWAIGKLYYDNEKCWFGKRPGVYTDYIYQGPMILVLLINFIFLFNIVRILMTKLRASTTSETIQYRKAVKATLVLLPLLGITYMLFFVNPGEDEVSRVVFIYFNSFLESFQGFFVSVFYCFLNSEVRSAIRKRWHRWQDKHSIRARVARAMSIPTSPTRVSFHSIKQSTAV
In words: CRE luciferase reporter gene assay (CRF1R antagonism/agonism). Format: cell-based. As to conditions: fraction F, relative to the other identified cyclotides. The method, then: The ipecac extract was tested for its modulating effect on CRF1R signaling using a cell-based luciferase reporter assay. HEK293 cells transiently transfected with an C-terminally GFP-tagged human CRF1R and a luciferase-coupled cAMP response element (CRE) were stimulated with varying concentrations of ipecac extract (0.01–50 μg mL^-1) in the presence and absence of 50 nM endogenous corticotropin-releasing factor (CRF) ligand. Concentration-dependent inhibition of receptor signaling was determined by measuring luciferase induction and accounting for the fluorescence of receptor-positive cells. The amount of luminescence of the control samples incubated with hormone alone was defined as 100% efficacy (Figure 1E). The inhibitory potency of the corresponding cyclotide-containing ipecac extract was measured and normalized relative to the efficacy of the control. […] The inhibitory potency of the ipecac extract to antagonize CRF1R signaling was determined as half-maximal concentration (IC50) as 2.0 μg mL^-1 (Figure 1F). […]
After confirming the presence of cyclotides in the ipecac extract, we aimed to isolate the cyclotides responsible for CRF1R antagonism using a bioassay-guided fraction approach. […] All fractions were analyzed by analytical HPLC and MALDI-TOF MS. […] Fractions C and D were determined to contain at least two cyclotides (Figures 4B,C and Supplementary Figure 1). […]

The target of test [3] is T1, human CRF1R. In words: cAMP accumulation assay at CRF1R (LANCE Ultra cAMP). The format is cell-based. The method, then:
Receptor-mediated cAMP accumulation was measured in HEK293 cells transiently transfected with the human CRF1R (with C-terminal GFP tag) using the LANCE® Ultra cAMP Detection kit (PerkinElmer, Waltham, MA, United States). To prepare for experiments, HEK293 cells were grown to confluence in a 6-well plate, followed by transfection with 2.5 μg of plasmid DNA per well using the Lipofectamine® 2000 transfection reagent (Thermo Fisher Scientific). After 4–6 h post-transfection, the cell media was replaced, followed by dissociation of cells via trituration and division of the cell suspension to avoid overcrowding over the subsequent 48 h of incubation at 37°C and 5% CO2. On the day of assay, cells were dissociated with phosphate buffered saline- (PBS-)EDTA solution (137 mM NaCl, 2.7 mM KCl, 10 mM Na2HPO4, 1.8 mM KH2PO4, 1 mM EDTA) and re-suspended in stimulation buffer (1.26 mM CaCl2, 0.49 mM MgCl2, 0.41 mM MgSO4, 5.33 mM KCl, 0.44 mM KH2PO4, 4.17 mM NaHCO3, 138 mM NaCl, 0.34 mM Na2HPO4, 5.56 mM D-glucose, 5 mM HEPES, 0.5 mM IBMX, 0.1% BSA; pH 7.4). Stimulation of cAMP accumulation via the human CRF1R and the human V2R used 500 cells and 300 cells (expressing these receptors) per well, respectively, in 384-well white Cellstar® plates (Greiner Bio-One, Kremsmuenster, Austria). Cells were incubated with the respective cognate receptor agonist peptides, in the absence and presence of cyclotide, for 30 min at 23°C in a final volume of 10 μL of stimulation buffer. Termination of cAMP accumulation was performed with the addition of 5 μL of Eu-cAMP tracer solution and 5 μL of ULight-anti-cAMP antibody solution, each prepared in detection buffer, followed by incubation of the plate for 1 h at 23°C with the lid on. After incubation, the plate was read in a Flexstation 3 plate reader (Molecular Devices, Sunnyvale, CA, United States).
Data from cellular assays were analyzed using GraphPad Prism 7.01 (GraphPad Software, San Diego, CA, United States). Concentration-response curve data were fitted to the three-parameter logistic equation to derive estimates of potency (LogIC50, luciferase; LogEC50, cAMP) and efficacy (Emax), relative to the maximal agonist control response. CRF LogEC50 values in the absence and presence of caripe 8 were statistically compared via extra sum-of-squares F test analysis. Other statistical analyses were performed as appropriate using one-way analysis of variance (ANOVA) with Bonferroni’s post-test, and significance taken as p < 0.05.
In general terms: Cyclic AMP is a second messenger, typically raised through Gs and lowered through Gi signalling.

The subject of test [4] is oxytocin receptor. To be noted: ref Koehbach et al. (2013b); cited from earlier work. The source says: (§1) Cyclotides are plant-derived cyclic peptides that are currently of great interest as lead molecules and peptide scaffolds for pharmaceutical drug development ([Thell et al., 2016]; [Craik and Du, 2017]). They were first isolated from O. affinis (Rubiaceae), a plant used as herbal preparation (‘kalata-kalata’) in traditional Congolese medicine for its uterotonic properties ([Gran, 1970]; [Craik et al., 1999]; [Gran et al., 2000]). Evidence-based proof of the plant’s traditional use in childbirth and post-partum care was provided in 2013; [Koehbach et al. (2013b)] isolated the cyclotide kalata B ...

In test [5] the test system is vasopressin V1a receptor. To be noted: ref Koehbach et al. (2013b); cited from earlier work.
From the text: as §1

With “GVIPCGESCVFIPCITAAI–GCSCKKKVCYRN (bicyclic or more) [caripe 8, natural bracelet cyclotide isolated from fraction F of ipecac root extract]”, in test [1] (AVP 50 pM), the “effect on arginine-vasopressin-stimulated cAMP accumulation” value is “not altered”. In test [1] (forskolin 300 nM), the “effect on forskolin-stimulated cAMP accumulation” value was “not altered”. The “relative effectiveness as inhibitor of CRF1R-mediated luciferase activity” value in test [2] is recorded as “the most effective inhibitor”. In test [3] (260 nM caripe 8, CRF concentration-response, HEK293 with human CRF1R, 30 min, 23°C, pH 7.4, six independent experiments in triplicate), the “fold reduction of CRF potency” value is listed as “approximately 4.5 fold”. In test [3] (260 nM caripe 8, CRF concentration-response, six experiments in triplicate), the “effect on CRF maximal response” value was “lack of effect”. For the same substance, in test [3] (260 nM caripe 8, extra sum-of-squares F test, six experiments in triplicate), the “difference of CRF LogEC50 in absence and presence of caripe 8” value was “significantly different from each other (p < 0.05)”. In addition, the “inhibition of CRF1R-mediated cAMP response to CRF” value in test [3] (2.6, 26 and 260 nM cyclotide with an EC50 / approximate EC80 (Fig. 6A) of CRF, 30 min, 23°C, three experiments in triplicate) is “modest concentration-dependent inhibition”. In addition, in test [3] (HEK293, human CRF1R, submaximal agonist concentrations of forskolin), the “effect on cAMP accumulation in combination with submaximal forskolin” value is “no effect”. Further, the “intrinsic activity in the cAMP assay” value in test [3] (HEK293 transiently expressing human CRF1R, cyclotide alone, 30 min, 23°C, pH 7.4) is “did not exhibit any intrinsic activity”. Moreover, the “mode of antagonism at CRF1R” value in test [3] (suggested from modest and limited antagonism) is reported as “does not interact competitively with the CRF binding site”. Besides, the “limit of concentration-dependent inhibition of CRF-mediated cAMP response (data not shown)” value in test [3] (titration with CRF, data not shown) is on record as “observed to reach a threshold”.

As to kalata B7, in test [4], the “affinity and potency at oxytocin receptor” value was “moderate affinity and potency (μM-concentration range)”; the “mode of action at oxytocin receptor” value is listed as “partial agonist”. Moreover, in test [5], the “affinity and potency at vasopressin V1a receptor” value was “moderate affinity and potency (μM-concentration range)”; the “mode of action at vasopressin V1a receptor” value is “partial agonist”.
